ChEMBL document CHEMBL1201862, “PubChem BioAssay data set” (2004)
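Growth conditions: 96-well plates. Treatment: test compound, 48 hours, 5 concentrations. Analysis: linear interpolation between bracketing concentrations; unreached endpoints set to highest concentration. GI50 = concentration required for 50% inhibition of growth.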 The source made the active and inactive calls. Cut-off read from the data, not from the text of the source: active = GI50 up to about 1.1 µM and inactive = higher.

Legend:
Assay in all cases: NCI-60 cell line screen, 48 h
LOX IMVI = tested on: LOX IMVI
DU-145 = tested on: DU-145
HOP-62 = tested on: HOP-62
KM12 = tested on: KM12
NCI-H23 = tested on: NCI-H23
786-0 = tested on: 786-0
SK-MEL-5 = tested on: SK-MEL-5
HCT-15 = tested on: HCT-15
RPMI-8226 = tested on: RPMI-8226
SK-MEL-28 = tested on: SK-MEL-28
RXF 393 = tested on: RXF 393
OVCAR-8 = tested on: OVCAR-8
SW-620 = tested on: SW-620
IGROV-1 = tested on: IGROV-1
CCRF-CEM = tested on: CCRF-CEM
HL-60 = tested on: HL-60
EKVX = tested on: EKVX
SK-OV-3 = tested on: SK-OV-3
A549 = tested on: A549
UACC-62 = tested on: UACC-62
UACC-257 = tested on: UACC-257
PC-3 = tested on: PC-3
HCC 2998 = tested on: HCC 2998
Malme-3M = tested on: Malme-3M
SNB-75 = tested on: SNB-75
SR = tested on: SR
MOLT-4 = tested on: MOLT-4
SF-268 = tested on: SF-268
TK-10 = tested on: TK-10
SN12C = tested on: SN12C
HT-29 = tested on: HT-29
COLO 205 = tested on: COLO 205
T47D = tested on: T47D
MDA-N = tested on: MDA-N
MCF7 = tested on: MCF7
MDA-MB-231 = tested on: MDA-MB-231
M14 = tested on: M14
CAKI-1 = tested on: CAKI-1
K562 = tested on: K562
SF-295 = tested on: SF-295
HCT-116 = tested on: HCT-116
OVCAR-5 = tested on: OVCAR-5
UO-31 = tested on: UO-31
A498 = tested on: A498
Hs-578T = tested on: Hs-578T
NCI-H522 = tested on: NCI-H522
HOP-92 = tested on: HOP-92
MDA-MB-435 = tested on: MDA-MB-435
ACHN = tested on: ACHN
SK-MEL-2 = tested on: SK-MEL-2
SF-539 = tested on: SF-539
U-251 = tested on: U-251
NCI-H460 = tested on: NCI-H460
OVCAR-3 = tested on: OVCAR-3
SNB-19 = tested on: SNB-19
OVCAR-4 = tested on: OVCAR-4
NCI/ADR-RES = tested on: NCI/ADR-RES
NCI-H226 = tested on: NCI-H226

Measured: GI50

CCOc1ccc(-c2nc(-c3oc4ccccc4c(=O)c3OC(C)=O)cs2)cc1
7.13 µM: HCT-15
inactive: LOX IMVI > 10 µM | DU-145 > 10 µM | HOP-62 > 10 µM | KM12 > 10 µM | NCI-H23 > 10 µM | 786-0 > 10 µM | SK-MEL-5 > 10 µM | RPMI-8226 > 10 µM | SK-MEL-28 6.71 µM | RXF 393 2.62 µM | OVCAR-8 > 10 µM | SW-620 > 10 µM | IGROV-1 > 10 µM | CCRF-CEM 7.57 µM | HL-60 > 10 µM | EKVX > 10 µM | SK-OV-3 > 10 µM | A549 > 10 µM | UACC-62 > 10 µM | UACC-257 > 10 µM | PC-3 > 10 µM | HCC 2998 > 10 µM | Malme-3M > 10 µM | SNB-75 8.97 µM | SR > 10 µM | MOLT-4 > 10 µM | SF-268 9.06 µM | TK-10 > 10 µM | SN12C 9.93 µM | HT-29 > 10 µM | COLO 205 > 10 µM | T47D > 10 µM | MDA-N 6.18 µM | MCF7 3.52 µM | MDA-MB-231 > 10 µM | M14 > 10 µM | CAKI-1 > 10 µM | K562 5.5 µM | SF-295 > 10 µM

NC1NCCC(=O)N1CCc1c[nH]c2ccccc12 (stereo not given)
19.5 µM: HCT-15
inactive: HCT-116 13.6 µM | LOX IMVI 12.9 µM | OVCAR-5 23.6 µM | DU-145 23.7 µM | HOP-62 19.2 µM | KM12 15.5 µM | NCI-H23 18.7 µM | 786-0 20 µM | UO-31 41.6 µM | SK-MEL-5 16.9 µM | A498 12.7 µM | Hs-578T 23.4 µM | NCI-H522 87.5 µM | RPMI-8226 37.2 µM | HOP-92 31.1 µM | SK-MEL-28 19.3 µM | MDA-MB-435 17 µM | RXF 393 22.8 µM | ACHN 24.6 µM | OVCAR-8 39.7 µM | SW-620 21.3 µM | SK-MEL-2 19.9 µM | IGROV-1 25.4 µM | SF-539 16.7 µM | CCRF-CEM 23.6 µM | U-251 65.2 µM | HL-60 24.8 µM | EKVX 28.1 µM | NCI-H460 16.8 µM | SK-OV-3 > 100 µM | A549 26.1 µM | OVCAR-3 20.9 µM | UACC-62 20.1 µM | UACC-257 17.8 µM | PC-3 19.3 µM | HCC 2998 18.5 µM | Malme-3M 19.9 µM | SNB-75 6.98 µM | SR 29 µM | SNB-19 33.7 µM | OVCAR-4 27.1 µM | SF-268 22.1 µM | TK-10 25.9 µM | SN12C 27.2 µM | HT-29 27.2 µM | COLO 205 18.3 µM | T47D 37.2 µM | MDA-N 17.6 µM | NCI/ADR-RES 24.5 µM | MCF7 15.5 µM | MDA-MB-231 13.2 µM | M14 19.2 µM | CAKI-1 29.2 µM | NCI-H226 28.7 µM | K562 22.4 µM | SF-295 24.5 µM

O=C(CCl)N1CCN(c2ccccn2)CC1
> 10 µM: HCT-15
inactive: HCT-116 32.3 µM | OVCAR-5 20.7 µM | DU-145 > 100 µM | HOP-62 22.7 µM | KM12 34.5 µM | NCI-H23 19.8 µM | 786-0 18.4 µM | UO-31 21.8 µM | SK-MEL-5 18.1 µM | A498 17 µM | Hs-578T 42.8 µM | RPMI-8226 31.8 µM | HOP-92 21.3 µM | SK-MEL-28 20 µM | RXF 393 23.4 µM | ACHN 31.6 µM | OVCAR-8 26.2 µM | SW-620 23.8 µM | IGROV-1 21.3 µM | CCRF-CEM 19.9 µM | U-251 17.9 µM | HL-60 24.3 µM | EKVX 26.9 µM | NCI-H460 19.3 µM | SK-OV-3 46.7 µM | A549 > 10 µM | UACC-257 30.3 µM | PC-3 > 100 µM | HCC 2998 19.4 µM | Malme-3M 16.8 µM | SNB-75 > 10 µM | SR 34.9 µM | MOLT-4 31.7 µM | SNB-19 57.1 µM | OVCAR-4 15.6 µM | SF-268 23.6 µM | TK-10 19.5 µM | HT-29 17.7 µM | COLO 205 24.2 µM | T47D 13.2 µM | MDA-N 25.2 µM | NCI/ADR-RES 27.2 µM | MCF7 23.9 µM | M14 16.6 µM | CAKI-1 19.3 µM | K562 31.7 µM | SF-295 > 10 µM
